Laboratory results: patent US5234922A, “Use of sulfonylureas and other potassium channel regulators to treat secretory diarrhea” (University of Iowa Research Foundation, priority 1992, dated 1993)
Structures can show the parent of a compound that is named as a salt. Where two headings read alike, the source gives them in different places.

Biological target: T1, wild-type human CFTR (Homo sapiens, UniProt P13569)
T1 construct: expressed in transfected cells; host or cells: NIH 3T3 fibroblasts (stably infected with a retrovirus)
T1 sequence (P13569 whole entry): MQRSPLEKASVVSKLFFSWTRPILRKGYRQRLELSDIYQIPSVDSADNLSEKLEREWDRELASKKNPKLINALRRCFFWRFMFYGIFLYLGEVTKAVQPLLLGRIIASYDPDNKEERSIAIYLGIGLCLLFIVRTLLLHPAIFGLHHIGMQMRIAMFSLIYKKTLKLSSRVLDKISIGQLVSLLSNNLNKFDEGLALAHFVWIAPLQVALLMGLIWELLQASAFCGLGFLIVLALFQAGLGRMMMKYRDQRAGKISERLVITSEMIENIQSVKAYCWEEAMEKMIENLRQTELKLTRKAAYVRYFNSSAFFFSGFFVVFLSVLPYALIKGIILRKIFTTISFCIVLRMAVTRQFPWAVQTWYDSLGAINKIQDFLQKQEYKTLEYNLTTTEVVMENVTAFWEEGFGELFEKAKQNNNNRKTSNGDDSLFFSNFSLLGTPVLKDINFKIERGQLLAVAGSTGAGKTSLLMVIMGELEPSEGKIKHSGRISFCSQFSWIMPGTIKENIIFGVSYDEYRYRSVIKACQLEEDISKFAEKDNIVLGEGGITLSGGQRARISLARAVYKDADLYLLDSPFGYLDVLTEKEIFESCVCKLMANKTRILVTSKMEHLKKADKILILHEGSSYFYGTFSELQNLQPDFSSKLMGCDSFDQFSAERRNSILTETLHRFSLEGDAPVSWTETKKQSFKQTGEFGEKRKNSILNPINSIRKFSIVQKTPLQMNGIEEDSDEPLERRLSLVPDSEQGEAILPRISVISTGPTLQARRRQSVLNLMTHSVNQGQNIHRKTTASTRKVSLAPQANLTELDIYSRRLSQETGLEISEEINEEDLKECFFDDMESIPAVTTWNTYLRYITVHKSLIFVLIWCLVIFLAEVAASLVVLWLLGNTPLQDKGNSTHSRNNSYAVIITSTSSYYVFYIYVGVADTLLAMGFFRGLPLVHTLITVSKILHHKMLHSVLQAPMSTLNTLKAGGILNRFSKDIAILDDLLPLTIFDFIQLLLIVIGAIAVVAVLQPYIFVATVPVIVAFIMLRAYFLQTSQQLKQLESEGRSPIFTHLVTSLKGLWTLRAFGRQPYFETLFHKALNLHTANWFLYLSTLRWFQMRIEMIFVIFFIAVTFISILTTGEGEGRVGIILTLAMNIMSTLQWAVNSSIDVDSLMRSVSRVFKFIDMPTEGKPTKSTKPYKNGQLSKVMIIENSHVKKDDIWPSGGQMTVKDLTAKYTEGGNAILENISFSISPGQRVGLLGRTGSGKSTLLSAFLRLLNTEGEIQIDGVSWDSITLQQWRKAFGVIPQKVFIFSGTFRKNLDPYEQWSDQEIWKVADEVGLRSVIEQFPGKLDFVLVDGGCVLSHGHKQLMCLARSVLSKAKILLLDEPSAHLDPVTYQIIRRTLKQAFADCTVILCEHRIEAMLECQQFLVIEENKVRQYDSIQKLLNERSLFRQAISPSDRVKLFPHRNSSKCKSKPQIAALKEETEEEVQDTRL
Experiment: Whole-cell patch-clamp recording of cAMP-activated CFTR Cl- currents in NIH 3T3 fibroblasts expressing recombinant CFTR
Type: cell-based
Conditions: for effect on baseline currents: before cAMP stimulation, n=3; for inhibition at 1000 µM: 1 mM; for effect on Cl- current previously activated by cAMP agonists: added to the bathing solution after activation; for relative potency of inhibition of CFTR Cl- currents: rank order among K+ channel openers

[1] = NIH3T3, 250 μM, 3 min after adding, currents activated by cAMP agonists
[2] = NIH3T3, 3 min after adding, currents activated by cAMP agonists

Row | inhibition at 250 µM [1] [%] | effect on Cl- current previously activated by cAMP agonists | relative potency of inhibition of CFTR Cl- currents | Structure (SMILES) | inhibition at 1000 µM [2] [%] | other results
1 | > 70 | inhibited | more potent than diazoxide | CC1(C)Oc2ccc(C#N)cc2[C@@H](N2CCCC2=O)[C@@H]1O [lemakalim] | – | effect on baseline currents (250 μM): no effect
2 | – | inhibited | more potent than lemakalim | Nc1cc(N2CCCCC2)nc(N)[n+]1OS(=O)(=O)[O-] [minoxidil sulfate] | – | effect on baseline currents (10-500 μM): no effect; inhibition at 100 µM (NIH3T3, 100 μM, 3 min after adding, currents activated by cAMP agonists, read-out: inhibition of CFTR Cl- currents): > 70%

The remaining lines, values behind:

Row | Structure (SMILES) | inhibition at 250 µM [1] [%] | effect on Cl- current previously activated by cAMP agonists | relative potency of inhibition of CFTR Cl- currents | inhibition at 1000 µM [2] [%] | other results
3 | CC1=NS(=O)(=O)c2cc(Cl)ccc2N1 [diazoxide] | > 70 | inhibited | – | > 70 | effect on baseline currents (100-1,000 μM): no effect
4 | COc1ccc(Cl)cc1C(=O)NCCc1ccc(S(=O)(=O)NC(=O)NC2CCCCC2)cc1 [glibenclamide] | – | – | – | – | inhibition at 100 µM (NIH3T3, read-out: inhibition of CFTR Cl- currents): > 90%; reversibility of inhibition of CFTR Cl- currents on washing (prolonged washing): irreversible
5 | CCCCNC(=O)NS(=O)(=O)c1ccc(C)cc1 [tolbutamide] | – | – | – | > 90 | voltage dependence of inhibition of CFTR Cl- currents (500 μM): little voltage dependence; effect on CFTR Cl- currents (500 μM, currents activated by cAMP agonists): inhibited; reversibility of inhibition of CFTR Cl- currents on washing (washes lasting >10 min): partially recovered
